Assay results from patent US10271557B2, “Composition comprising a bacteriocin and an extract from a plant of the Labiatae family” (DUPONT NUTRITION BIOSCIENCES APS, priority 2003, dated 2019).

Key:
[1] = tested on: Listeria monocytogenes and B. cereus strains; experiment: In vitro synergy with nisin in Bioscreen, 24 h at 30° C.; type: cell-based, Listeria monocytogenes; Bacillus cereus; details: combined with nisin
Procedure: Growth curves of Listeria monocytogenes and B. cereus strains in laboratory media were analysed as described above using the Bioscreen C analyser. Minimal inhibitory concentrations (MIC) were determined for the test compounds used singly or in combination after 24 h at 30° C. […] These had been prepared by selected extraction with either organic solvents or CO2 to obtain extracts containing 28% phenolic diterpenes (28RE; Danisco) and a rosemary extract containing 6% rosmarinic acid (6RA; Danisco).

[2] = tested on: L. monocytogenes strain S23; experiment: MIC in Bioscreen after 24 h at 30° C. in laboratory medium; type: cell-based, Listeria monocytogenes; details: alone
Procedure: (§1) A 100,000 ppm GRE09 solution was prepared in water and filter sterilised (0.2 μm). Further dilutions were prepared in sterile deionised water at 1,250-20,000 ppm. Brain Heart Infusion broth (Oxoid) was prepared and GRE09 stock solutions were added to give the following test solutions of GRE09; 125, 250, 500, 750, 1000, 1250, 1500, 2000 ppm. […] A fully automated microbial growth analyser was used to determine microbial growth curves (Microbiology Reader Bioscreen C analyser linked to a PC with installed software BioLink v 5.30; Labsystem Oy, Finland). Tests were prepared in honeycomb 2 (HC 2) microtitre/cuvette plates with a capacity of 100 wells per plate. The wells were loaded with 270 μl of the prepared media and inoculated at a level of 10^3 CFU (colony forming units)/ml with 30 μl of microbial suspension. Incubation time and temperature was as appropriate for the test organism. This test allowed suitable test levels for the compounds to be determined. The rosemary extract and nisin were then tested in combination, using the same procedure. […] GRE09 solutions were prepared at 250, 500 and 1000 ppm as above. Combinations of all these test levels were prepared and tested in the Bioscreen as before.
(§2) Growth curves of Listeria monocytogenes and B. cereus strains in laboratory media were analysed as described above using the Bioscreen C analyser. […]

B. cereus Campden spores = experiment: as above; type: cell-based, Bacillus cereus; details: alone
Procedure: as §1, §2

[3] = tested on: Listeria monocytogenes strains 272, CRA3930 and NCTC12426; experiment: Kill of Listeria in chicken soup at 20° C. with nisin and rosemary extract components; type: cell-based; details: FIGS. 4 and 5
Procedure: The chicken soup model was used as before. The following samples were tested: GRE09, deodorised rosemary extracts containing 28% or 70% phenolic diterpenes (RE28 and RE70; Danisco), a water soluble rosemary extract containing 6% rosmarinic acid (6RA; Danisco) and pure rosmarinic acid (RA; Sigma). Additions to the soup were made as appropriate. The soup was pasteurised (70° C./2 minutes), the pH recorded and the soup was then inoculated with a cocktail of Listeria cells prepared as described before. The tests were incubated at 20° C. and viable count enumeration performed after 0, 2, 4 and 24 h at 20° C. Initial Listeria levels were 1.3×10^5 CFU/ml. The test was repeated at two nisin levels and over different time periods. The pH of the soup without addition was pH 6.06-6.20.

MIC in Bioscreen after 24 h at 30° C., individual components [2]	MIC in Bioscreen after 24 h at 30° C., individual components (B. cereus Campden spores)	Structure (SMILES)	effect of the substance on nisin activity (synergy) in laboratory medium [1]	synergy with nisin in achieving kill of Listeria cells [3]
–	–	CC(O)CO (centres unmarked) [propylene glycol]	did not enhance nisin activity	–
1% RA	1% RA	O=C(/C=C/c1ccc(O)c(O)c1)O[C@H](Cc1ccc(O)c(O)c1)C(=O)O [RA, rosmarinic acid]	Enhanced nisin activity	evident but not as strong
